Drawing on patent US9174964B2, “AMPK-activating piperidinyloxy-substituted 2,3-dihydro-1H-indene-1-amine compounds and pharmaceutical compositions including the same” (Rigel Pharmaceuticals, Inc., priority 2007, dated 2015), this text covers EC50 for 31 compounds.

Structures can show the parent of a compound that is named as a salt.

One assay deals with AMPK. Put plainly: AMPK activation, enzyme-linked immunosorbent assay. The class given is biochemical. The conditions noted are these: Table 2, AMPK activation, ELISA. On the technique in general: In an ELISA, binding on a coated surface is turned into a signal by an enzyme label.
By EC50 is commonly meant the midpoint of the concentration-response curve. Read a high EC50 as lower potency in that assay. Compound `N#Cc1ccc(CN2CC(NC(=O)c3ccc(OC4CCN(c5ccc(C(F)(F)F)cc5)CC4)cn3)C2)cc1` [Compound 41, N-(1-(4-cyanobenzyl)azetidin-3-yl)-5-(1-(4-(trifluoromethyl)phenyl)piperidin-4-yloxy)picolinamide] had an EC50 of 100 to 500 nM. Compound `O=C(NC1CCN(Cc2ccccc2)CC1)c1ccc(OC2CCN(c3ccc(C(F)(F)F)cc3)CC2)cn1` [Compound 38, N-(1-benzylpiperidin-4-yl)-5-(1-(4-(trifluoromethyl)phenyl)piperidin-4-yloxy)picolinamide] showed an EC50 of 1000 to 5000 nM. `O=C(NC1CCN(Cc2ccc(F)cc2)CC1)c1ccnc(OC2CCN(c3ccc(C(F)(F)F)cc3)CC2)c1` [Compound 22, N-(1-(4-fluorobenzyl)piperidin-4-yl)-2-(1-(4-(trifluoromethyl)phenyl)piperidin-4-yloxy)isonicotinamide] yielded a half-maximal effective concentration (EC50) of 1000 to 5000 nM. For the compound `O=C(NC1CCN(Cc2ccc(F)cc2)CC1)c1ccc(OC2CCN(c3ccc(C(F)(F)F)cc3)CC2)nc1` [Compound 11, N-(1-(4-fluorobenzyl)piperidin-4-yl)-6-(1-(4-(trifluoromethyl)phenyl)piperidin-4-yloxy)nicotinamide], the EC50 was < 100 nM.

With `O=C(NC1CCN(CCc2ccccc2)CC1)c1ccc(OC2CCN(c3ccc(C(F)(F)F)cc3)CC2)cn1` [Compound 36, N-(1-phenethylpiperidin-4-yl)-5-(1-(4-(trifluoromethyl)phenyl)piperidin-4-yloxy)picolinamide], the EC50 lay in the range of 500 to 1000 nM. Still for that read-out and setting: next, `N#Cc1ccc(CN2CCC(NC(=O)c3ccc(OC4CCN(c5ccc(C#N)cc5)CC4)cn3)CC2)cc1` [Compound 2, N-(1-(4-cyanobenzyl)piperidin-4-yl)-5-(1-(4-cyanophenyl)piperidin-4-yloxy)picolinamide]: < 100 nM.

The assay is the same for the next values; noted with them: Table 3, AMPK activation, ELISA.
In turn, `N#Cc1ccc(CN2CCC(Oc3ccc(S(=O)(=O)NC4CCN(Cc5ccncc5)CC4)cn3)CC2)cc1` [Compound 53, 6-(1-(4-cyanobenzyl)piperidin-4-yloxy)-N-(1-(pyridin-4-ylmethyl)piperidin-4-yl)pyridine-3-sulfonamide] gave an EC50 of 100 to 500 nM. `N#Cc1cccc(CN2CCC(NS(=O)(=O)c3ccc(OC4CCN(c5ccc(C(F)(F)F)cc5)CC4)nc3)CC2)c1` [Compound 57, N-(1-(3-cyanobenzyl)piperidin-4-yl)-6-(1-(4-(trifluoromethyl)phenyl)piperidin-4-yloxy)pyridine-3-sulfonamide] yielded an EC50 of 500 to 1000 nM. With `O=C(c1ccc(F)cc1)N1CCC(NS(=O)(=O)c2ccc(OC3CCN(c4ccc(C(F)(F)F)cc4)CC3)nc2)CC1` [Compound 60, N-(1-(4-fluorobenzoyl)piperidin-4-yl)-6-(1-(4-(trifluoromethyl)phenyl)piperidin-4-yloxy)pyridine-3-sulfonamide], the EC50 was > 50000 nM. As for `O=S(=O)(NC1CCN(Cc2ccncc2)CC1)c1ccc(OC2CCN(c3ccc(C(F)(F)F)cc3)CC2)nc1` [Compound 51, N-(1-(pyridin-4-ylmethyl)piperidin-4-yl)-6-(1-(4-(trifluoromethyl)phenyl)piperidin-4-yloxy)pyridine-3-sulfonamide], the EC50 lay in the range of 100 to 500 nM.

The assay is the same for the next values; noted with them: Table 4, AMPK activation, ELISA.
In the case of `CN(C(=O)c1cc2cc(OC3CCN(c4ccc(C(F)(F)F)cc4)CC3)ccc2o1)C1CCN(C(=O)OC(C)(C)C)CC1` [Compound 102, tert-butyl 4-(N-methyl-5-(1-(4-(trifluoromethyl)phenyl)piperidin-4-yloxy)benzofuran-2-carboxamido)piperidine-1-carboxylate], the EC50 lay within 1000 to 10000 nM.

With `O=C(N[C@@H]1CCN(Cc2ccccn2)C1)c1cc2cc(OC3CCN(c4ccc(C(F)(F)F)cc4)CC3)ccc2o1` [Compound 124, (R)-N-(1-(pyridin-2-ylmethyl)pyrrolidin-3-yl)-5-(1-(4-(trifluoromethyl)phenyl)piperidin-4-yloxy)benzofuran-2-carboxamide], the EC50 was in the range of 1000 to 10000 nM. Still for that read-out and setting: the result for `CN(C(=O)c1cc2cc(OC3CCN(c4ccc(C(F)(F)F)cc4)CC3)ccc2o1)C1CCNCC1` [Compound 103, N-methyl-N-(piperidin-4-yl)-5-(1-(4-(trifluoromethyl)phenyl)piperidin-4-yloxy)benzofuran-2-carboxamide] reads 1000 to 10000 nM.

With `Cc1c(C(=O)NC2CCN(Cc3cccnc3)CC2)oc2cc(OC3CCN(c4ccc(C(F)(F)F)cc4)CC3)ccc12` [Compound 69, 3-methyl-N-(1-(pyridin-3-ylmethyl)piperidin-4-yl)-6-(1-(4-(trifluoromethyl)phenyl)piperidin-4-yloxy)benzofuran-2-carboxamide], the EC50 is < 100 nM. Regarding `O=C(N[C@@H]1CCN(S(=O)(=O)c2cccnc2)C1)c1cc2cc(OC3CCN(c4ccc(C(F)(F)F)cc4)CC3)ccc2o1` [Compound 126, (R)-N-(1-(pyridin-3-ylsulfonyl)pyrrolidin-3-yl)-5-(1-(4-(trifluoromethyl)phenyl)piperidin-4-yloxy)benzofuran-2-carboxamide], the EC50 lay within 1000 to 10000 nM.

With `CC(C)(C)OC(=O)N1CC[C@H](NC(=O)c2cc3cc(OC4CCN(Cc5ccc(Cl)cc5)CC4)ccc3o2)C1` [Compound 127, (S)-tert-butyl 3-(5-(1-(4-chlorobenzyl)piperidin-4-yloxy)benzofuran-2-carboxamido)pyrrolidine-1-carboxylate], the EC50 lay in the range of 1000 to 10000 nM. Same read-out and setting: next, `O=C(NC1CCN(Cc2ccccn2)CC1)c1cc2ccc(OC3CCN(c4ccc(C(F)(F)F)cc4)CC3)cc2o1` [Compound 93, N-(1-(pyridin-2-ylmethyl)piperidin-4-yl)-6-(1-(4-(trifluoromethyl)phenyl)piperidin-4-yloxy)benzofuran-2-carboxamide]: 100 to 500 nM. Regarding `O=C(NC1CCNCC1)c1cc2ccc(OC3CCN(c4ccc(OC(F)(F)F)cc4)CC3)cc2o1` [Compound 83, N-(piperidin-4-yl)-6-(1-(4-(trifluoromethoxy)phenyl)piperidin-4-yloxy)benzofuran-2-carboxamide hydrochloride], the EC50 was in the range of 100 to 500 nM.

Take `Cc1c(C(=O)NC2CCN(Cc3ccc(F)cc3)CC2)oc2cc(OC3CCN(c4ccc(C(F)(F)F)cc4)CC3)ccc12` [Compound 63, N-(1-(4-fluorobenzyl)piperidin-4-yl)-3-methyl-6-(1-(4-(trifluoromethyl)phenyl)piperidin-4-yloxy)benzofuran-2-carboxamide]: the EC50 was < 100 nM. Still for that read-out and setting: the result for `O=C(NC1CCN(Cc2ccc(F)cc2)CC1)c1cc2ccc(OC3CCN(c4ccc(C(F)(F)F)cc4)CC3)cc2o1` [Compound 91, N-(1-(4-fluorobenzyl)piperidin-4-yl)-6-(1-(4-(trifluoromethyl)phenyl)piperidin-4-yloxy)benzofuran-2-carboxamide] reads > 50000 nM; that for `N#Cc1ccc(CN2CCC(NC(=O)c3cc4ccc(OC5CCN(c6ccc(C(F)(F)F)cc6)CC5)cc4o3)CC2)cc1` [Compound 90, N-(1-(4-cyanobenzyl)piperidin-4-yl)-6-(1-(4-(trifluoromethyl)phenyl)piperidin-4-yloxy)benzofuran-2-carboxamide], < 100 nM. On the same count and under the same terms, next, `O=C(NC1CCN(Cc2ccccn2)CC1)c1cc2ccc(OC3CCN(c4ccc(OC(F)(F)F)cc4)CC3)cc2o1` [Compound 92, N-(1-(pyridin-2-ylmethyl)piperidin-4-yl)-6-(1-(4-(trifluoromethoxy)phenyl)piperidin-4-yloxy)benzofuran-2-carboxamide]: 500 to 1000 nM.

For the compound `O=C(NC1CCN(Cc2ccccc2)CC1)c1cc2cc(OC3CCN(Cc4cccc(C(F)(F)F)c4)CC3)ccc2o1` [Compound 73, N-(1-benzylpiperidin-4-yl)-5-(1-(3-(trifluoromethyl)benzyl)piperidin-4-yloxy)benzofuran-2-carboxamide], the EC50 was 500 to 1000 nM. For `O=C(NC1CCN(Cc2cccnc2)CC1)c1cc2ccc(OC3CCN(c4ccc(C(F)(F)F)cc4)CC3)cc2o1` [Compound 96, N-(1-(pyridin-3-ylmethyl)piperidin-4-yl)-6-(1-(4-(trifluoromethyl)phenyl)piperidin-4-yloxy)benzofuran-2-carboxamide], the EC50 is < 100 nM.

For `Cc1c(C(=O)NC2CCN(Cc3ccccn3)CC2)oc2cc(OC3CCN(c4ccc(C(F)(F)F)cc4)CC3)ccc12` [Compound 68, 3-methyl-N-(1-(pyridin-2-ylmethyl)piperidin-4-yl)-6-(1-(4-(trifluoromethyl)phenyl)piperidin-4-yloxy)benzofuran-2-carboxamide], the EC50 was < 100 nM. Still for that read-out and setting: next, `Cc1c(C(=O)NC2CCNCC2)oc2cc(OC3CCN(c4ccc(C(F)(F)F)cc4)CC3)ccc12` [Compound 62, 3-methyl-N-(piperidin-4-yl)-6-(1-(4-(trifluoromethyl)phenyl)piperidin-4-yloxy)benzofuran-2-carboxamide]: 10000 to 50000 nM.

The same assay, now with this note: Table 5, AMPK activation, ELISA.
In the case of `CC(C)(C)OC(=O)N1CCC(NC(=O)c2sc3cc(OC4CCN(c5ccc(C(F)(F)F)cc5)CC4)ccc3c2Cl)CC1` [Compound 147, tert-butyl 4-(3-chloro-6-(1-(4-(trifluoromethyl)phenyl)piperidin-4-yloxy)benzo[b]thiophene-2-carboxamido)piperidine-1-carboxylate], the EC50 was 1000 to 50000 nM. As for `O=C(NC1CCN(Cc2ccncc2)CC1)c1cc2cc(OC3CCN(Cc4ccc(Cl)cc4)CC3)ccc2s1` [Compound 139, formate salt], the EC50 is < 100 nM. For the compound `N#Cc1ccc(CN2CCC(NC(=O)c3cc4ccc(OC5CCN(c6ccc(C(F)(F)F)cc6)CC5)cc4s3)CC2)cc1` [Compound 144, N-(1-(4-cyanobenzyl)piperidin-4-yl)-6-(1-(4-(trifluoromethyl)phenyl)piperidin-4-yloxy)benzo[b]thiophene-2-carboxamide], the EC50 was < 100 nM.

`N#Cc1cccc(CN2CCC(NC(=O)c3cc4ccc(OC5CCN(c6ccc(C(F)(F)F)cc6)CC5)cc4s3)CC2)c1` [Compound 145, N-(1-(3-cyanobenzyl)piperidin-4-yl)-6-(1-(4-(trifluoromethyl)phenyl)piperidin-4-yloxy)benzo[b]thiophene-2-carboxamide]: the EC50 lay in the range of 100 to 500 nM.

The assay is the same for the next values; noted with them: Table 6, AMPK activation, ELISA.
Regarding `FC(F)(F)c1ccc(N2CCC(Oc3ccc4c(c3)CCC4NC3CCN(Cc4ccncc4)CC3)CC2)cc1` (stereo not shown) [Compound 158, 1-(pyridin-4-ylmethyl)-N-(5-(1-(4-(trifluoromethyl)phenyl)piperidin-4-yloxy)-2,3-dihydro-1H-inden-1-yl)piperidin-4-amine], the EC50 was in the range of 500 to 1000 nM.
